This note sets out measurements from patent publication US20230022157A1 (Achillion Pharmaceuticals, Inc., priority 2018, published 2023).

Structures are written as SMILES. pIC50: −log10 of the molar value.

This test deals with T1, Human Factor D (Homo sapiens, UniProt P00746).
T1 construct: purified from human serum; purchased Complement Technology, Inc; host or cells: human serum (natural protein, not recombinant)
T1 sequence (P00746 26-253): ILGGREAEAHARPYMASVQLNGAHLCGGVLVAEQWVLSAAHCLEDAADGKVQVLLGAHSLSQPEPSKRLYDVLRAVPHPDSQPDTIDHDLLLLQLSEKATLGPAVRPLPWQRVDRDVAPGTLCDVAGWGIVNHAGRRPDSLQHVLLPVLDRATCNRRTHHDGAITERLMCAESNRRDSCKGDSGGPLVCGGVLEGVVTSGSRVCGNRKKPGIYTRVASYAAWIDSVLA
In words: Human Factor D Assay. It counts as biochemical. Conditions: Human Factor D 80 nM, substrate Z-L-Lys-SBzl; Table 2; read-out: IC50 (Stars). The gist of the method: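 Serum-purified human factor D (80 nM final) preincubated 5 min at room temperature with test compound in 50 mM Tris, 1M NaCl, pH 7.5. Z-L-Lys-SBzl substrate and DTNB then added, each at 100 μM final. IC50 from nonlinear regression of reaction rate against compound concentration.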
Usually pIC50 stands for the negative decadic logarithm of the IC50, by convention in mol/L. Regarding `CC(=O)c1cn(CC(=O)N2[C@H](C(=O)Nc3nc(Br)c(F)cc3C)C[C@@]3(C)C[C@@H]23)c2ccc(-c3cnc4cc(C)nn4c3)cc12` [Compound 211, (1R,3S,5R)-2-(2-(3-acetyl-5-(2-methylpyrazolo[1,5-a]pyrimidin-6-yl)-1H-indol-1-yl)acetyl)-N-(6-bromo-5-fluoro-3-methylpyridin-2-yl)-5-methyl-2-azabicyclo[3.1.0]hexane-3-carboxamide], the pIC50 is above 6.00. `CC(=O)c1nn(CC(=O)N2[C@H](C(=O)N[C@@H]3CCCCC3(F)F)C[C@@]3(C)C[C@@H]23)c2c(C)cc(-c3cnc(C)nc3)cc12` [Compound 148, (1R,3S,5R)-2-{2-[3-acetyl-7-methyl-5-(2-methylpyrimidin-5-yl)indazol-1-yl]acetyl}-N-[(1R)-2,2-difluorocyclohexyl]-5-methyl-2-azabicyclo[3.1.0]hexane-3-carboxamide]: the pIC50 is above 6.00. For the molecule `CC(=O)c1cn(CC(=O)N2[C@H]3CC[C@H](C3)[C@H]2C(=O)Nc2nc(Br)ccc2C)c2c(C)cc(-c3cnc(C)nc3)cc12` [Compound 178, (1S,3S,4R)-2-(2-(3-acetyl-7-methyl-5-(2-methylpyrimidin-5-yl)-1H-indol-1-yl)acetyl)-N-(6-bromo-3-methylpyridin-2-yl)-2-azabicyclo[2.2.1]heptane-3-carboxamide], the pIC50 was above 6.00. Next, `Cc1ncc(-c2cc3c(C(N)=O)nn(CC(=O)N4[C@H](C(=O)Nc5cncc(Br)n5)C[C@@]5(C)C[C@@H]45)c3c(C)n2)cn1` [Compound 92, 1-{2-[3-(6-Bromo-pyrazin-2-ylcarbamoyl)-5-methyl-2-aza-bicyclo[3.1.0]hex-2-yl]-2-oxo-ethyl}-7-methyl-5-(2-methyl-pyrimidin-5-yl)-1H-pyrazolo[3,4-c]pyridine-3-carboxylic acid amide]: above 6.00; `COCc1ccc(Br)nc1NC(=O)[C@@H]1C[C@@]2(C)C[C@H]2N1C(=O)Cn1cc(C(C)=O)c2cc(-c3cnc4cc(C)nn4c3)cc(C)c21` [Compound 215, (1R,3S,5R)-2-(2-(3-acetyl-7-methyl-5-(2-methylpyrazolo[1,5-a]pyrimidin-6-yl)-1H-indol-1-yl)acetyl)-N-(6-bromo-3-(methoxymethyl)pyridin-2-yl)-5-methyl-2-azabicyclo[3.1.0]hexane-3-carboxamide]: above 6.00. On to `CC(=O)c1nn(CC(=O)N2[C@H](C(=O)NCC3(C)CCCCC3)C[C@@]3(C)C[C@@H]23)c2c(C)cc(-c3cnc(C)nc3)cc12` [Compound 90, (1R,3S,5R)-2-{2-[3-acetyl-7-methyl-5-(2-methylpyrimidin-5-yl)indazol-1-yl]acetyl}-5-methyl-N-[(1-methylcyclohexyl)methyl]-2-azabicyclo[3.1.0]hexane-3-carboxamide], for which the pIC50 was above 6.00. Consider `CC(=O)c1nn(CC(=O)N2[C@H](C(=O)Nc3nc(Br)ccc3C)C[C@@]3(C)C[C@@H]23)c2ccc(-c3cnc(C(=O)O)nc3)cc12` [Compound 47, 5-(3-acetyl-1-(2-((1R,3S,5R)-3-((6-bromo-3-methylpyridin-2-yl)carbamoyl)-5-methyl-2-azabicyclo[3.1.0]hexan-2-yl)-2-oxoethyl)-1H-indazol-5-yl)pyrimidine-2-carboxylic acid], for which the pIC50 was above 6.00. For `Cc1ncc(-c2ccc3c(c2)c(C2OCCO2)nn3CC(=O)N2[C@H](C(=O)Nc3nc(Br)ccc3C)C[C@@]3(C)C[C@@H]23)cn1` [Compound 143, (1R,3S,5R)-2-(2-(3-(1,3-dioxolan-2-yl)-5-(2-methylpyrimidin-5-yl)-1H-indazol-1-yl)acetyl)-N-(6-bromo-3-methylpyridin-2-yl)-5-methyl-2-azabicyclo[3.1.0]hexane-3-carboxamide], the negative logarithm of the IC50 (pIC50) was above 6.00. The value for `Cc1ncc(-c2cc3c(C(N)=O)nn(CC(=O)N4[C@H](C(=O)Nc5cc(F)cc(Br)n5)C[C@@]5(C)C[C@@H]45)c3c(C)n2)cn1` [Compound 140, 1-(2-((1R,3S,5R)-3-((6-bromo-4-fluoropyridin-2-yl)carbamoyl)-5-methyl-2-azabicyclo[3.1.0]hexan-2-yl)-2-oxoethyl)-7-methyl-5-(2-methylpyrimidin-5-yl)-1H-pyrazolo[3,4-c]pyridine-3-carboxamide] was above 6.00. `CC(=O)c1nn(CC(=O)N2[C@H](C(=O)NC(C)Cc3cccs3)C[C@@]3(C)C[C@@H]23)c2c(C)cc(-c3cnc(C)nc3)cc12` (stereo partly drawn) [Compound 182, (1R,3S,5R)-2-{2-[3-acetyl-7-methyl-5-(2-methylpyrimidin-5-yl)indazol-1-yl]acetyl}-5-methyl-N-[1-(thiophen-2-yl)propan-2-yl]-2-azabicyclo[3.1.0]hexane-3-carboxamide]: the pIC50 is above 6.00. Next, `CC(=O)c1nn(CC(=O)N2[C@H](C(=O)Nc3nc(C(F)(F)F)ccc3C)C[C@@]3(C)C[C@@H]23)c2c(C)cc(-c3cnc(CO)nc3)cc12` [Compound 54, (1R,3S,5R)-2-(2-(3-acetyl-5-(2-(hydroxymethyl)pyrimidin-5-yl)-7-methyl-1H-indazol-1-yl)acetyl)-5-methyl-N-(3-methyl-6-(trifluoromethyl)pyridin-2-yl)-2-azabicyclo[3.1.0]hexane-3-carboxamide]: above 6.00.

For `CC(=O)c1nn(CC(=O)N2[C@H](C(=O)Nc3nc(Br)c(F)cc3C)C[C@@]3(C)C[C@@H]23)c2c(C)cc(-c3cnc(C(C)(C)O)nc3)cc12` [Compound 68, (1R,3S,5R)-2-(2-(3-acetyl-5-(2-(2-hydroxypropan-2-yl)pyrimidin-5-yl)-7-methyl-1H-indazol-1-yl)acetyl)-N-(6-bromo-5-fluoro-3-methylpyridin-2-yl)-5-methyl-2-azabicyclo[3.1.0]hexane-3-carboxamide], the negative-log IC50 (pIC50) was above 6.00. For `CC(=O)c1nn(CC(=O)N2[C@H](C(=O)Nc3nc(C(F)(F)F)ccc3C)C[C@@]3(C)C[C@@H]23)c2c(C)cc(-c3cnc(C(=O)O)nc3)cc12` [Compound 51, 5-(3-acetyl-7-methyl-1-(2-((1R,3S,5R)-5-methyl-3-((3-methyl-6-(trifluoromethyl)pyridin-2-yl)carbamoyl)-2-azabicyclo[3.1.0]hexan-2-yl)-2-oxoethyl)-1H-indazol-5-yl)pyrimidine-2-carboxylic acid], the pIC50 is above 6.00. The value for `CC(=O)c1nn(CC(=O)N2[C@H](C(=O)NCCC3(C)OCCO3)C[C@@]3(C)C[C@@H]23)c2c(C)cc(-c3cnc(C)nc3)cc12` [Compound 145, (1R,3S,5R)-2-{2-[3-acetyl-7-methyl-5-(2-methylpyrimidin-5-yl)indazol-1-yl]acetyl}-5-methyl-N-[2-(2-methyl-1,3-dioxolan-2-yl)ethyl]-2-azabicyclo[3.1.0]hexane-3-carboxamide] was above 6.00; that for `CC(=O)c1nn(CC(=S)N2C[C@H](F)C[C@H]2C(=O)Nc2cccc(Br)n2)c2ccc(-c3cnc(C)nc3)cc12` [Compound 110, 1-{2-[3-Acetyl-5-(2-methyl-pyrimidin-5-yl)-indazol-1-yl]-thioacetyl}-4-fluoro-pyrrolidine-2-carboxylic acid (6-bromo-pyridin-2-yl)-amide] was 5.00 to 6.00; that for `CC(=O)c1cn(CC(=O)N2[C@H](C(=O)Nc3nc(C(F)(F)F)ccc3C)C[C@@]3(C)C[C@@H]23)c2ccc(-c3cnc4cc(C)nn4c3)cc12` [Compound 203, (1R,3S,5R)-2-(2-(3-acetyl-5-(2-methylpyrazolo[1,5-a]pyrimidin-6-yl)-1H-indol-1-yl)acetyl)-5-methyl-N-(3-methyl-6-(trifluoromethyl)pyridin-2-yl)-2-azabicyclo[3.1.0]hexane-3-carboxamide] was above 6.00. The value for `CC(=O)c1cn(CC(=O)N2[C@H](C(=O)Nc3ccc(F)c(Br)n3)C[C@@]3(C)C[C@@H]23)c2c(C)cc(-c3cnc(C)nc3)cc12` [Compound 194, (1R,3S,5R)-2-(2-(3-acetyl-7-methyl-5-(2-methylpyrimidin-5-yl)-1H-indol-1-yl)acetyl)-N-(6-bromo-5-fluoropyridin-2-yl)-5-methyl-2-azabicyclo[3.1.0]hexane-3-carboxamide] was above 6.00.

Regarding `CC(=O)c1nn(CC(=O)N2[C@H](C(=O)Nc3nc(Br)ccc3C)C[C@@]3(C)C[C@@H]23)c2c(C)cc(-c3ccnc(CO)c3)cc12` [Compound 132, (1R,3S,5R)-2-(2-(3-acetyl-5-(2-(hydroxymethyl)pyridin-4-yl)-7-methyl-1H-indazol-1-yl)acetyl)-N-(6-bromo-3-methylpyridin-2-yl)-5-methyl-2-azabicyclo[3.1.0]hexane-3-carboxamide], the pIC50 is above 6.00.

Take `CC(=O)c1nn(CC(=O)N2[C@H](C(=O)Nc3nc(Br)ccc3C)C[C@@]3(C)C[C@@H]23)c2ccc(-c3cncc(S(C)(=O)=O)c3)cc12` [Compound 121, (1R,3S,5R)-2-(2-(3-Acetyl-5-(5-(methylsulfonyl)pyridin-3-yl)-1H-indazol-1-yl)acetyl)-N-(6-bromo-3-methylpyridin-2-yl)-5-methyl-2-azabicyclo[3.1.0]hexane-3-carboxamide]: the pIC50 was above 6.00. For the molecule `CC(=O)c1nn(CC(=O)N2C[C@H]3C[C@H]3[C@H]2C(=O)Nc2nc(Br)ccc2C)c2c(C)cc(-c3cnc(CO)nc3)cc12` [Compound 61, (1R,2S,5S)-3-(2-(3-acetyl-5-(2-(hydroxymethyl)pyrimidin-5-yl)-7-methyl-11H-indazol-1-yl)acetyl)-N-(6-bromo-3-methylpyridin-2-yl)-3-azabicyclo[3.1.0]hexane-2-carboxamide], the pIC50 was above 6.00. Take `CC(=O)c1cn(CC(=O)N2[C@H](C(=O)Nc3nc(C(F)(F)F)ccc3C)C[C@@]3(CF)C[C@@H]23)c2c(C)cc(-c3cnc(C)nc3)cc12` [Compound 234, (1R,3S,5S)-2-(2-(3-acetyl-7-methyl-5-(2-methylpyrimidin-5-yl)-1H-indol-1-yl)acetyl)-5-(fluoromethyl)-N-(3-methyl-6-(trifluoromethyl)pyridin-2-yl)-2-azabicyclo[3.1.0]hexane-3-carboxamide]: the pIC50 is above 6.00.
